Source: ChEMBL document CHEMBL1201862, “PubChem BioAssay data set” (2004)
The source made the active and inactive calls. Unless noted, the calls are words filed in the database; no cut-off is given here.

Legend:
[1] = target: Nuclear receptor subfamily 0 group B member 1 (Homo sapiens, UniProt P51843); type: functional, cell-based;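 further: HEK293T cells transfected with SF-1 and DAX-1 plus StAR promoter luciferase reporter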
[2] = cells; type: functional, cell-based
[3] = target: Fructose-bisphosphate aldolase (Mycobacterium tuberculosis, UniProt P9WQA3); experiment: Fluorescence-based biochemical high throughput dose response assay for inhibitors of the fructose-bisphosphate aldolase (FBA) of M. tuberculosis.; type: functional
Fructose-bisphosphate aldolase, sequence (P9WQA3 whole entry): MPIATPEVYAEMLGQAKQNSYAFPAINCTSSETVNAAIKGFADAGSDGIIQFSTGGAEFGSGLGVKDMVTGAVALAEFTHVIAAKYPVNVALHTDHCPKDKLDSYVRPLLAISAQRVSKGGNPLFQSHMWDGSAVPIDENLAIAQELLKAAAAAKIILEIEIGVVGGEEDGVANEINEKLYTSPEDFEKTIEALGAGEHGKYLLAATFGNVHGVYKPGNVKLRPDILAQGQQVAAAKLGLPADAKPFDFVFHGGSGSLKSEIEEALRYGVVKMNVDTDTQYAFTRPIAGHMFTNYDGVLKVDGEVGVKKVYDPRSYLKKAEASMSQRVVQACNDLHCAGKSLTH

[4] = target: Beta Lactamase (Pseudomonas aeruginosa, UniProt Q932Y6);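 further: confirmatory high-throughput screen measuring VIM-2 metallo-beta-lactamase inhibition by epi-absorbance in dose response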
Beta Lactamase, sequence (Q932Y6 whole entry): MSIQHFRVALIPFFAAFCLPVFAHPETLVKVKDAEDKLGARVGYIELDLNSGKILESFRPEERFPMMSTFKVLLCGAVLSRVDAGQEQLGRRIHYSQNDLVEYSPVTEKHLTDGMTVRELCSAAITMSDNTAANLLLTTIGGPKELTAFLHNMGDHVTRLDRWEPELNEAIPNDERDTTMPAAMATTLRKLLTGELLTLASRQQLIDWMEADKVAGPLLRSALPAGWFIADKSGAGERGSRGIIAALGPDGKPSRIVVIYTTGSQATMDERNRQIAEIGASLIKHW

[5] = target: T1, Endoribonuclease toxin MazF (Escherichia coli K-12, UniProt P0AE70); experiment: fluorescent RNA oligo signal without MazF, dose response, counter-screen for MazEF activator project, biochemical, fluorescence, single-stranded RNase substrate (AID 588502); type: functional
T1 sequence (P0AE70 whole entry): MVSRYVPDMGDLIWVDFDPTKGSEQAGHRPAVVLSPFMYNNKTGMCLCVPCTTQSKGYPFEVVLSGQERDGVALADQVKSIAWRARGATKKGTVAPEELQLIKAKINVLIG

[6] = target: T1, Endoribonuclease toxin MazF; experiment: MazF toxin RNase activators, dose response, biochemical, fluorescence, single-stranded RNA substrate, uHTS hits (AID 588481); type: functional
[7] = target: Beta-lactamase (Pseudomonas aeruginosa, UniProt Q79MP6);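 further: biochemical dose-response test of metallo-beta-lactamase enzyme inhibition, read out by epi-absorbance; purified recombinant IMP-1 metallo-beta-lactamase with nitrocefin as substrate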
Beta-lactamase (Pseudomonas aeruginosa, UniProt Q79MP6), sequence (Q79MP6 whole entry): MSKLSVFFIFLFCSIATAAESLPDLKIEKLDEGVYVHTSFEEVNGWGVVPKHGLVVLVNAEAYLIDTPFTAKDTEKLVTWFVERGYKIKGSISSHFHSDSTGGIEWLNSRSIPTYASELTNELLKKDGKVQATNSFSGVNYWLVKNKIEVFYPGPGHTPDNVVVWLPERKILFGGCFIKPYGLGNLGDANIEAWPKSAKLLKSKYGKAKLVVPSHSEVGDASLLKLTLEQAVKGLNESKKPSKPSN

[8] = target: Beta-lactamase (Salmonella choleraesuis (strain SC-B67), UniProt Q5J463)
Beta-lactamase (Salmonella choleraesuis (strain SC-B67), UniProt Q5J463), sequence (Q5J463 whole entry): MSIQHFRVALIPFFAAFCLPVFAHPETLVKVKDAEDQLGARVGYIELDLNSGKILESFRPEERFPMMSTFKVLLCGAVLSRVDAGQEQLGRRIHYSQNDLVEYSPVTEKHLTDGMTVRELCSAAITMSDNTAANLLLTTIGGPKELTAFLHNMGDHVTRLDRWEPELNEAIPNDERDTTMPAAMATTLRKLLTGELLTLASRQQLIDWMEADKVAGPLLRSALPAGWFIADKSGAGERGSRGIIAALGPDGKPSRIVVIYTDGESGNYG

[9] = target: T2, Botulinum neurotoxin type A (Clostridium botulinum (strain Hall / ATCC 3502 / NCTC 13319 / Type A), UniProt P0DPI1); experiment: High-throughput multiplex microsphere dose response for inhibitors of toxin protease, specifically Botulinum neurotoxin light chain A protease, compounds from Powder Set 01.; type: functional, Clostridium botulinum A str. ATCC 3502; details: read-out: EC50_MICROM
T2 sequence (P0DPI1 2-448 limits assumed): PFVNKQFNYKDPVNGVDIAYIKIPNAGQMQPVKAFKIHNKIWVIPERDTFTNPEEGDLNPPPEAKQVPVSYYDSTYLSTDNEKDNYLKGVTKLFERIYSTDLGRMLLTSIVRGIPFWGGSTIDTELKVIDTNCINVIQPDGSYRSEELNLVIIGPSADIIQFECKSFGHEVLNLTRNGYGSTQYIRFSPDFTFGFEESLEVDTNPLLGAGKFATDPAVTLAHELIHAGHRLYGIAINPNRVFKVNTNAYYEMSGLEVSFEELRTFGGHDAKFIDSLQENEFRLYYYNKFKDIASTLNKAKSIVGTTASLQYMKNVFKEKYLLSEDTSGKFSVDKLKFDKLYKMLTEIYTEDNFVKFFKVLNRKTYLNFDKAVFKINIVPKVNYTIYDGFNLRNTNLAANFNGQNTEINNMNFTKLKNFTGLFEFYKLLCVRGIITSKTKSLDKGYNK

[10] = target: T2, Botulinum neurotoxin type A; experiment: Confirmatory FRET assay using full length substrates for Botulinum neurotoxin light chain A protease, with Powder Set01.; type: functional
[11] = target: Botulinum neurotoxin type F (Clostridium botulinum, UniProt P30996); experiment: High-throughput multiplex microsphere dose response for inhibitors of toxin protease, specifically Botulinum neurotoxin light chain F protease, compounds from Powder Set 01.; type: functional, Clostridium botulinum Bf; details: read-out: EC50_MICROM
Botulinum neurotoxin type F, sequence (P30996 1-436 limits assumed): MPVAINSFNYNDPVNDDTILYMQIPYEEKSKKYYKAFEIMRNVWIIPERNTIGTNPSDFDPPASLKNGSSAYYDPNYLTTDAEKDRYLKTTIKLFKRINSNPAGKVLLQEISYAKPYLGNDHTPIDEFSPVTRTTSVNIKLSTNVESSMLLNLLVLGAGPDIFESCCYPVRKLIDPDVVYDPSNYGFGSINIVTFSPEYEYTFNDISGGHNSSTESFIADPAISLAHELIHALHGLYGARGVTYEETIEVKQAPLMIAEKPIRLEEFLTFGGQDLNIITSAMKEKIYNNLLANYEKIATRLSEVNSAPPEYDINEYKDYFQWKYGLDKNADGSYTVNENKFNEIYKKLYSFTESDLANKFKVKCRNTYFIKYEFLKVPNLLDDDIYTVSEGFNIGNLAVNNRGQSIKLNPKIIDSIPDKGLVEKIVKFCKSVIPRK

[12] = target: Lethal factor (Bacillus anthracis, UniProt P15917); experiment: High-throughput multiplex microsphere dose response for inhibitors of toxin protease, specifically Lethal Factor protease, compounds from Powder Set 01.; type: functional, Bacillus anthracis str. A2012; details: read-out: EC50_MICROM
Lethal factor, sequence (P15917 whole entry): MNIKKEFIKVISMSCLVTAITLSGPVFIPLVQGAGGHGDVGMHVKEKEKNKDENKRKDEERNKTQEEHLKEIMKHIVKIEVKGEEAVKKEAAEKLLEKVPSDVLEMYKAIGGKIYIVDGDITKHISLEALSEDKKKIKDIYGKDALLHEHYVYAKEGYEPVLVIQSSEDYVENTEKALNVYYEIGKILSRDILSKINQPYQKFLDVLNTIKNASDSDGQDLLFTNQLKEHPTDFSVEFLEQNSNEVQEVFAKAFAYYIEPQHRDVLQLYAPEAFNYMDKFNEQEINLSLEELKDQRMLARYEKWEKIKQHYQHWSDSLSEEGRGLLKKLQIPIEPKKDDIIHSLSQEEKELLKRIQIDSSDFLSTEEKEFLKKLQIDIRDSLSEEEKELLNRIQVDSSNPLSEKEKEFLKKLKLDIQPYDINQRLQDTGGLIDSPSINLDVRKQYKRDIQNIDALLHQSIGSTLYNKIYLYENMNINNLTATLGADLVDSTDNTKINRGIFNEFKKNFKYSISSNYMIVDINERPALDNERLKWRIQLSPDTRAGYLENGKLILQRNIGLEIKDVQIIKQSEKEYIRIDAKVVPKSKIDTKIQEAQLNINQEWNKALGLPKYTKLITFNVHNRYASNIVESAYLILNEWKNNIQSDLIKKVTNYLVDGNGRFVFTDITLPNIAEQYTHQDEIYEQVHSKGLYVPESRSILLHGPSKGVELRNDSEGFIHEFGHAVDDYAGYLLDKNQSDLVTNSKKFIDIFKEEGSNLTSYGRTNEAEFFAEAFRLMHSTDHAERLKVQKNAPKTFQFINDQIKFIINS

[13] = target: T2, Botulinum neurotoxin type A; experiment: High-throughput multiplex microsphere dose response for inhibitors of toxin protease, specifically Botulinum neurotoxin light chain A protease, compounds from Cherry Pick 01.; type: functional; details: read-out: EC50_MICROM
[14] = target: Melanocortin receptor 4 (Homo sapiens, UniProt P32245); experiment: MC4R antagonist potency on cAMP, dose response, cell-based, TR-FRET, biased antagonists (AID 602298); type: functional;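 further: antagonist potency against agonist-stimulated cAMP production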
Melanocortin receptor 4, sequence (P32245 whole entry): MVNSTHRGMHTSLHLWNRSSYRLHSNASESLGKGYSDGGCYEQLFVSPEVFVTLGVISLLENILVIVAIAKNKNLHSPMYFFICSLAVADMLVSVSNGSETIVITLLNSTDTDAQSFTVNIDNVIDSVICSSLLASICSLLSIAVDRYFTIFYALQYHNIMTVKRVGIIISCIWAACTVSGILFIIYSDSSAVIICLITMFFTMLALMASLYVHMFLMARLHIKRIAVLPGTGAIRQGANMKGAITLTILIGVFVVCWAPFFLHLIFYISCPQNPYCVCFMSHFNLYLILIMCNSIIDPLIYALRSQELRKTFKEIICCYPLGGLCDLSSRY

[15] = control 3'UTR Renilla luciferase suppression, dose response, counter-screen for Shn3 inhibitor project, cell-based, Clone20-Shn3RL, cherry-picked (AID 624133); type: functional
[16] = nonselective inhibitors of cellular cAMP signaling, dose response, counter-screen for MC4R biased antagonist project, cell-based, TR-FRET cAMP detection (AID 602305); type: functional;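 further: U2OS cells stimulated with forskolin near its EC80 as the cAMP inducer; potency is for inhibition of forskolin-stimulated cAMP signaling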
[17] = Shn3 3'UTR reporter inhibitors, dose response, cell-based, Clone20 osteoblasts, firefly luciferase, cherry-picked (AID 624132); type: functional;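 further: firefly luciferase luminescence from reporter carrying the Shn3 3'UTR in osteoblasts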
[18] = HepG2 cell cytotoxicity, dose response, cytotoxicity control for Shn3 inhibitor project, CellTiter-Glo, cherry-picked (AID 624134); type: functional, cell-based
[19] = target: Beta-galactosidase (Escherichia coli, UniProt Q8VNN2); experiment: Dose response counterscreen for EBI2 assay utilizing the enzyme, b-galactosidase.; type: functional
Beta-galactosidase, sequence (Q8VNN2 whole entry): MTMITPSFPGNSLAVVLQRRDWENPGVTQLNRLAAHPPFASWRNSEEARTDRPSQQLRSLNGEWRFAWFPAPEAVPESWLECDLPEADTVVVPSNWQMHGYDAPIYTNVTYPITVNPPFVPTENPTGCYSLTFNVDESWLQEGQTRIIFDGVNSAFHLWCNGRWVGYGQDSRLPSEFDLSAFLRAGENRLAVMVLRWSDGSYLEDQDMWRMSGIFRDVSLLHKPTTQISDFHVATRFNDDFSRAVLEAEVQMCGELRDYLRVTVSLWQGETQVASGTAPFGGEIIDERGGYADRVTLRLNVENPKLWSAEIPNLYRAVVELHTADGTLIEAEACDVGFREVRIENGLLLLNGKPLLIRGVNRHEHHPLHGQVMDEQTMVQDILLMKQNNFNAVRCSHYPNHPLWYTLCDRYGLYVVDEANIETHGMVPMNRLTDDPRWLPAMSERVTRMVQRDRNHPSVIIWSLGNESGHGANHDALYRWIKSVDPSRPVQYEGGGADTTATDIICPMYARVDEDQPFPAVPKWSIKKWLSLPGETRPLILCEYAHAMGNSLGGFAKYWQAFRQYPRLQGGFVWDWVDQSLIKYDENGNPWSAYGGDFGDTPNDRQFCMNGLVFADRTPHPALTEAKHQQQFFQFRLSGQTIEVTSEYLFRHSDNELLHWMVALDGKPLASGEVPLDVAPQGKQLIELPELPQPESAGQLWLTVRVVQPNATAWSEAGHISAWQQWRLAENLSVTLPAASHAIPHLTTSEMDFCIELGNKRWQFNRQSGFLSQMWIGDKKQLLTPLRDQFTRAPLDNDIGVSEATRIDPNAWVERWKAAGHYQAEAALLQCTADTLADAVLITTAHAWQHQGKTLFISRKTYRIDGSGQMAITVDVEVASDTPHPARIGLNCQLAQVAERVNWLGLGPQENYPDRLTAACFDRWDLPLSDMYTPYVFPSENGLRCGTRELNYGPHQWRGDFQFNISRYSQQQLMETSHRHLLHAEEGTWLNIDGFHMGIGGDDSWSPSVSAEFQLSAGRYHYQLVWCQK

Nuclear receptor subfamily 0 group B member 1, sequence (P51843 whole entry): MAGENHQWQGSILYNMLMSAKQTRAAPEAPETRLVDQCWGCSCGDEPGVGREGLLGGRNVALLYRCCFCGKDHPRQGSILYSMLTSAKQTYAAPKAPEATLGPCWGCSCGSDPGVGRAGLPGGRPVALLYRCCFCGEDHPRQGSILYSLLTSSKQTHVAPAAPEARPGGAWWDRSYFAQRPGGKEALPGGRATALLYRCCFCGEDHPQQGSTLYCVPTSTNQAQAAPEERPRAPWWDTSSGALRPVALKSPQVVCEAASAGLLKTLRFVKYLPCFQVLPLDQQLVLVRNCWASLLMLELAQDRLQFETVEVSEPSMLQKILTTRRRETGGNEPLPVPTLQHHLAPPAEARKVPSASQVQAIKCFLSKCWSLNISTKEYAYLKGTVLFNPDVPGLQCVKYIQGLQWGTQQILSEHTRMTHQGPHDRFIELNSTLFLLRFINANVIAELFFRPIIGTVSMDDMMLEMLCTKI

CC1CCc2sc(C(=O)NC(C)C3CCCO3)cc2C1 (centres undefined)
IC50 [1]: > 67.5 µM (inactive)
IC50 [2]: > 67.5 µM (inactive)

COc1ccc2oc(=O)c(C(=O)NCc3ccccn3)cc2c1
IC50 [3]: 1.53 µM (active)

Oc1ccc2ccccc2c1-c1sc(Nc2ccccc2)n[n+]1-c1ccc(F)cc1
IC50 [4]: 32 µM (inactive)
EC50 [5]: > 99 µM (inactive)
EC50 [6]: > 99 µM (inactive)
IC50 [7]: 46.8 µM (inactive)
IC50 [8]: 23.7 µM (inactive)

O=C(Nc1ccc2nc(-c3cccs3)c(-c3cccs3)nc2c1)N1CCOCC1
EC50 [9]: 5.8 µM (active)
EC50 [10]: 0.4 µM (active)
EC50 [11]: 9.6 µM (active)
EC50 [12]: 7.6 µM (active)
EC50 [13]: 15.5 µM (active)

O=C(CSc1c2c(nc3ccc(Cl)cc13)CCCC2)N1CCN(C(=O)c2ccco2)CC1
IC50 [14]: > 64.6 µM (inactive)
AC50 [15]: 11.8 µM (active)
IC50 [16]: > 64.6 µM (inactive)
AC50 [17]: 3.75 µM (active)
AC50 [18]: 65.3 µM (active)

CN(Cc1ccccc1)C(=O)COc1ccc2ccccc2c1
IC50 [19]: > 80 µM (inactive)
